{"source": "patent EP2801573A1", "about": "“Hydantoine derivatives as CD38 inhibitors” (SANOFI, priority 2013, dated 2014)", "key": {"[1]": {"molecular_target": "T1, human recombinant CD38 enzyme (Homo sapiens, UniProt P28907)", "T1 construct": "purchased R&D Systems H7006", "T1 sequence (P28907 1-300)": "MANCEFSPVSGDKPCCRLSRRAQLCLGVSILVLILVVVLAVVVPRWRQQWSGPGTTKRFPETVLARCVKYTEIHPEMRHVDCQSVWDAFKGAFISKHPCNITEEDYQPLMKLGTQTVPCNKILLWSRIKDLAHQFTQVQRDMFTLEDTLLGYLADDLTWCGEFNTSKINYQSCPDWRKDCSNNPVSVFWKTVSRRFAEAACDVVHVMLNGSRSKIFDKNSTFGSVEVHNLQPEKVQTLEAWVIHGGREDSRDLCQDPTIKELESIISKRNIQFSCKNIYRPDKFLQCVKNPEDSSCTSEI", "assay": "Human recombinant enzyme assay (fluorimetric CD38 enzyme assay, ε-NAD substrate)", "type": "biochemical", "settings": "recombinant CD38 100 ng/ml, ε-NAD 100 µM, pH = 6.0, 37°C, reaction time 30 min; read-out: IC50 (nM) ENAD", "procedure": "Enzyme assay on human recombinant CD38 enzyme were performed in order to determine the in vitro potency of the newly synthesized compounds. IC50 values were determined for the test compounds and used to explore the structure-activity relationships (SAR).\n(§1) N6-etheno-NAD (ε-NAD), a NAD analogue previously shown to be a convenient substrate of CD38 enzyme activity (Graeff et al. J. Biol. Chem. 269, pp 30260-30367, […]) was used to measure the activity of human recombinant CD38 and cell surface enzyme activity.\nA fluorimetric CD38 enzyme assay was performed as described by Graeff et al. The reaction was started with 10 µl of N6-etheno-NAD (ε-NAD) substrate, final concentration 100 µM, in a final volume of 0.1 ml buffered with 50 mM HEPES, 0.05% BRIJ, pH = 6.0 containing 100 ng/ml recombinant CD38 (R&D Systems, H7006). Cleavage of ε-NAD, which causes a 10-fold fluorescence enhancement, was continuously followed at 37°C in a BMG Polarstar spectrofluorometer at an emission wavelength of 410 nm and an excitation of 300 nm, reaction time was 30 min. NADase activity was expressed as Δ relative fluorescence/min. The rate of enzyme reactions were compared in the presence and absence of inhibitor molecule, the IC50 values were calculated with Biostat Speed program."}, "[2]": {"molecular_target": "T2, natural cell surface human CD38 enzyme (Homo sapiens, UniProt P28907)", "T2 construct": "The A549 cells express active CD38 enzyme on the cell surface; endogenous in cells; host or cells: A549 human lung epithelial cells (ATCC CCL 185)", "T2 sequence (P28907 1-300)": "T1 sequence (P28907 1-300)", "assay": "Cell surface enzyme assay on A549 cells", "type": "cell-based", "settings": "A549 human lung epithelial cells, pre-incubated 15 min, ε-NAD 100 µM, 60 min, pH=7.4", "procedure": "A549 human lung epithelial cells were used as enzyme source. The A549 cells express active CD38 enzyme on the cell surface.\nas §1\nType II-like human lung epithelial cells A 549 (ATCC CCL 185) were grown in RPMI 1640 medium supplemented with 10% fetal calf serum, 2mM 1-glutamine and penicillin/streptomycin 1% in a humidified incubator with an atmosphere of 95% air and 5% CO2 at 37 °C. At about 70-80% confluence, cells were detached with trypsin/EDTA solution to form a cell suspension and counted. Cell viability was higher as 95% using trypan blue dye. Cells were plated at a density of 500.000 cells/well (24 well plate), before 24 hours of starting the enzyme assay. The medium was removed and replaced by assay buffer (20 mM HEPES, pH=7.4 containing 140 mM NaCl, 5 mM KCl, 1 mM MgSO4 1 mM CaCl2, 1mM Na2HPO4, 5.5 mM glucose).\nA549 cells (800.000/well, 500 µl) were pre-incubated in the presence and absence of inhibitors for 15 min before the addition of ε-NAD, final substrate concentration was 100 µM. After 60 min, the plate was centrifuged and 100 µl of supernatant was removed and measured fluorimetrically in BMG Polarstar spectrofluorimeter at an emission wavelength of 410 nm and an excitation of 300 nm. The mean difference in the fluorescence between reaction stopped at 0 and 60 min was used an arbitrary unit of NADase activity. The NADase activity in the absence and presence of inhibitors were compared and IC50 values were calculated."}}}
{"smiles": "O=C(c1cccc(N2C(=O)N/C(=C\\c3ccncc3)C2=O)c1)N1CCOCC1", "note": "[Compound 28, 3-[3-(Morpholine-4-carbonyl)-phenyl]-5-[1-pyridin-4-yl-meth-(Z)-ylidene]-imidazolidine-2,4-dione]", "values": [{"measurement": "IC50", "setting": "[1]", "value": 50, "unit": "nM"}, {"measurement": "IC50", "setting": "[2]", "value": 359, "unit": "nM"}]}
{"smiles": "O=C1N/C(=C\\c2ccncc2)C(=O)N1c1ccc(I)cc1", "note": "[Compound 33, 3-(4-Iodo-phenyl)-5-[1-pyridin-4-yl-meth-(Z)-ylidene]-imidazolidine-2,4-dione]", "values": [{"measurement": "IC50", "setting": "[1]", "value": 38, "unit": "nM"}, {"measurement": "IC50", "setting": "[2]", "value": 272, "unit": "nM"}]}
{"smiles": "O=C1N/C(=C\\c2ccncc2)C(=O)N1CC1CCCO1", "note": "(stereo not shown) [Compound 60, 5-[1-Pyridin-4-yl-meth-(Z)-ylidene]-3-(tetrahydro-furan-2-ylmethyl)-imidazolidine-2,4-dione]", "values": [{"measurement": "IC50", "setting": "[1]", "value": 22, "unit": "nM"}, {"measurement": "IC50", "setting": "[2]", "value": 81.8, "unit": "nM"}]}
{"smiles": "O=C1N/C(=C\\c2ccncc2)C(=O)N1CC(F)(F)F", "note": "[Compound 62, 5-[1-Pyridin-4-yl-meth-(Z)-ylidene]-3-(2,2,2-trifluoro-ethyl)-imidazolidine-2,4-dione]", "values": [{"measurement": "IC50", "setting": "[1]", "value": 57, "unit": "nM"}, {"measurement": "IC50", "setting": "[2]", "value": 604, "unit": "nM"}]}
{"smiles": "O=C1N/C(=C\\c2ccncc2)C(=O)N1CC1(O)CCC1", "note": "[Compound 59, 3-(1-Hydroxy-cyclobutylmethyl)-5-[1-pyridin-4-yl-meth-(Z)-ylidene]-imidazolidine-2,4-dione]", "values": [{"measurement": "IC50", "setting": "[1]", "value": 35, "unit": "nM"}, {"measurement": "IC50", "setting": "[2]", "value": 98.5, "unit": "nM"}]}
{"smiles": "O=C1N/C(=C\\c2ccncc2)C(=O)N1CC1CCOCC1", "note": "[Compound 56, 5-[1-Pyridin-4-yl-meth-(Z)-ylidene]-3-(tetrahydro-pyran-4-ylmethyl)-imidazolidine-2,4-dione]", "values": [{"measurement": "IC50", "setting": "[1]", "value": 20, "unit": "nM"}, {"measurement": "IC50", "setting": "[2]", "value": 137, "unit": "nM"}]}
{"smiles": "O=C1N/C(=C\\c2ccncc2)C(=O)N1CC1(O)CCCC1", "note": "[Compound 58, 3-(1-Hydroxy-cyclopentylmethyl)-5-[1-pyridin-4-yl-meth-(Z)-ylidene]-imidazolidine-2,4-dione]", "values": [{"measurement": "IC50", "setting": "[1]", "value": 30, "unit": "nM"}, {"measurement": "IC50", "setting": "[2]", "value": 246, "unit": "nM"}]}
{"smiles": "O=C1N/C(=C\\c2ccncc2)C(=O)N1c1ccc(Cl)cc1", "note": "[Compound 2, 3-(4-Chloro-phenyl)-5-[1-pyridin-4-yl-meth-(Z)-ylidene]-imidazolidine-2,4-dione]", "values": [{"measurement": "IC50", "setting": "[1]", "value": 30, "unit": "nM"}, {"measurement": "IC50", "setting": "[2]", "value": 181, "unit": "nM"}]}
{"smiles": "O=C1N/C(=C\\c2ccncc2)C(=O)N1C1CC(F)(F)C1", "note": "[Compound 53, 3-(3,3-Difluoro-cyclobutyl)-5-[1-pyridin-4-yl-meth-(Z)-ylidene]-imidazolidine-2,4-dione]", "values": [{"measurement": "IC50", "setting": "[1]", "value": 50, "unit": "nM"}, {"measurement": "IC50", "setting": "[2]", "value": 249, "unit": "nM"}]}
{"smiles": "O=C1N/C(=C\\c2ccncc2)C(=O)N1CC1(O)CCCCC1", "note": "[Compound 55, 3-(1-Hydroxy-cyclohexylmethyl)-5-[1-pyridin-4-yl-meth-(Z)-ylidene]-imidazotidine-2,4-dione]", "values": [{"measurement": "IC50", "setting": "[1]", "value": 55, "unit": "nM"}, {"measurement": "IC50", "setting": "[2]", "value": 242, "unit": "nM"}]}
{"smiles": "CCCCc1ccc(N2C(=O)N/C(=C\\c3ccncc3)C2=O)cc1", "note": "[Compound 24, 3-(4-Butyl-phenyl)-5-[1-pyridin-4-yl-meth-(Z)-ylidene]-imidazolidine-2,4-dione]", "values": [{"measurement": "IC50", "setting": "[1]", "value": 80, "unit": "nM"}, {"measurement": "IC50", "setting": "[2]", "value": 297, "unit": "nM"}]}
{"smiles": "CCCN1C(=O)N/C(=C\\c2ccncc2)C1=O", "note": "[Compound 41, 3-Propyl-5-[1-pyridin-4-yl-meth-(Z)-ylidene]-imidazolidine-2,4-dione]", "values": [{"measurement": "IC50", "setting": "[1]", "value": 80, "unit": "nM"}]}
{"smiles": "O=C1N/C(=C\\c2ccncc2)C(=O)N1c1cccc(C(F)(F)F)c1", "note": "[Compound 16, 5-[1-Pyridin-4-yl-meth-(Z)-ylidene]-3-(3-triftuoromethyl-phenyl)-imidazolidine-2,4-dione]", "values": [{"measurement": "IC50", "setting": "[1]", "value": 77, "unit": "nM"}]}
{"smiles": "O=C1N/C(=C\\c2ccncc2)C(=O)N1c1ccc(Cl)c(Cl)c1", "note": "[Compound 6, 3-(3,4-Dichloro-phenyl)-5-[1-pyridin-4-yl-meth-(Z)-ylidene]-imidazolidine-2,4-dione]", "values": [{"measurement": "IC50", "setting": "[1]", "value": 50, "unit": "nM"}]}
{"smiles": "CC(=O)c1ccc(N2C(=O)N/C(=C\\c3ccncc3)C2=O)cc1", "note": "[Compound 23, 3-(4-Acetyl-phenyl)-5-[1-pyridin-4-yl-meth-(Z)-ylidene]-imidazolidine-2,4-dione]", "values": [{"measurement": "IC50", "setting": "[1]", "value": 26, "unit": "nM"}]}
{"smiles": "CC1CCN(C(=O)c2ccc(N3C(=O)N/C(=C\\c4ccncc4)C3=O)cc2)CC1", "note": "[Compound 47, 3-[4-(4-Methyl-piperidine-1-carbonyl)-phenyl]-5-[1-pyridin-4-yl-meth-(Z)-ylidene]-imidazolidine-2,4-dione]", "values": [{"measurement": "IC50", "setting": "[1]", "value": 74, "unit": "nM"}]}
{"smiles": "CSc1ccc(N2C(=O)N/C(=C\\c3ccncc3)C2=O)cc1", "note": "[Compound 8, 3-(4-Methylsulfanyl-phenyl)-5-[1-pyridin-4-yl-meth-(Z)-ylidene]-imidazolidine-2,4-dione]", "values": [{"measurement": "IC50", "setting": "[1]", "value": 70, "unit": "nM"}]}
{"smiles": "CCC(C)N1C(=O)N/C(=C\\c2ccncc2)C1=O", "note": "(stereo not shown) [Compound 42, 3-sec-Butyl-5-[1-pyridin-4-yl-meth-(Z)-ylidene]-imidazolidine-2,4-dione]", "values": [{"measurement": "IC50", "setting": "[1]", "value": 868, "unit": "nM"}]}
{"smiles": "O=C1N/C(=C\\c2ccncc2)C(=O)N1Cc1ccccc1", "note": "[Compound 7, 3-Benzyl-5-[1-pyridin-4-yl-meth-(Z)-ylidene]-imidazolidine-2,4-dione]", "values": [{"measurement": "IC50", "setting": "[1]", "value": 50, "unit": "nM"}]}
{"smiles": "O=C1N/C(=C\\c2ccncc2)C(=O)N1c1ccc(OC(F)(F)F)cc1", "note": "[Compound 30, 5-[1-Pyridin-4-yl-meth-(Z)-ylidene]-3-(4-trifluoromethoxy-phenyl)-imidazolidine-2,4-dione]", "values": [{"measurement": "IC50", "setting": "[1]", "value": 28, "unit": "nM"}]}
{"smiles": "CCOC(=O)C1CCN(C(=O)c2ccc(N3C(=O)N/C(=C\\c4ccncc4)C3=O)cc2)CC1", "note": "[Compound 54, 1-(4-{2,5-Dioxo-4-[1-pyridin-4-yl-meth-(Z)-ylidene]-imidazotidin-l-yl}-benzoyl)-piperidine-4-carboxylic acid ethyl ester]", "values": [{"measurement": "IC50", "setting": "[1]", "value": 36, "unit": "nM"}]}
{"smiles": "CC(C)(O)CN1C(=O)N/C(=C\\c2ccncc2)C1=O", "note": "[Compound 61, 3-(2-Hydroxy-2-methyl-propyl)-5-[1-pyridin-4-yl-meth-(Z)-ylidene]-imidazolidine-2,4-dione]", "values": [{"measurement": "IC50", "setting": "[1]", "value": 25, "unit": "nM"}, {"measurement": "IC50", "setting": "[2]", "value": 288, "unit": "nM"}]}
{"smiles": "O=C1N/C(=C\\c2ccncc2)C(=O)N1CCN1CCCC1", "note": "[Compound 37, 5-[1-Pyridin-4-yl-meth-(Z)-ylidene]-3-(2-pyrrolidin-1-yl-ethyl)-imidazolidine-2,4-dione]", "values": [{"measurement": "IC50", "setting": "[1]", "value": 290, "unit": "nM"}]}
{"smiles": "C[S+]([O-])c1ccc(N2C(=O)N/C(=C\\c3ccncc3)C2=O)cc1", "note": "(stereo not shown) [Compound 25, 3-(4-Methanesulfinyl-phenyl)-5-[1-pyridin-4-yl-meth-(Z)-ylidene]-imidazolidine-2,4-dione]", "values": [{"measurement": "IC50", "setting": "[1]", "value": 60, "unit": "nM"}]}
{"smiles": "O=C1N/C(=C\\c2ccncc2)C(=O)N1CCCN1CCOCC1", "note": "[Compound 44, 3-(3-Morpholin-4-yl-propyl)-5-[1-pyridin-4-yl-meth-(Z)-ylidene]-imidazolidine-2,4-dione]", "values": [{"measurement": "IC50", "setting": "[1]", "value": 151, "unit": "nM"}]}
{"smiles": "CC(C)(C)c1ccc(N2C(=O)N/C(=C\\c3ccncc3)C2=O)cc1", "note": "[Compound 35, 3-(4-tert-Butyl-phenyl)-5-[1-pyridin-4-yl-meth-(Z)-ylidene]-imidazolidine-2,4-dione]", "values": [{"measurement": "IC50", "setting": "[1]", "value": 100, "unit": "nM"}]}
{"smiles": "O=C1N/C(=C\\c2ccncc2)C(=O)N1c1ccc(F)c(F)c1", "note": "[Compound 10, 3-(3,4-Difluoro-phenyl)-5-[1-pyridin-4-yl-meth-(Z)-ylidene]-imidazolidine-2,4-dione]", "values": [{"measurement": "IC50", "setting": "[1]", "value": 30, "unit": "nM"}]}
{"smiles": "CC(C)(CO)CN1C(=O)N/C(=C\\c2ccncc2)C1=O", "note": "[Compound 52, 3-(3-Hydroxy-2,2-dimethyl-propyl)-5-[1-pyridin-4-yl-meth-(Z)-ylidene]-imidazolidine-2,4-dione]", "values": [{"measurement": "IC50", "setting": "[1]", "value": 42, "unit": "nM"}]}
